Like-named read-outs stand apart in the source and are kept apart here.
Tests used:
Experiment in all cases: Growth assay (Cell Titer Glo)
Assay type in all cases: cell-based
SF-268 = conditions: Homo sapiens; SF-268, CNS
Procedure: (§1) All human tumor cell lines were obtained from ATCC and grown under standard cell culture conditions at 37° C. in a humidified atmosphere with 5% CO2. Cells were grown in RPMI 1640 supplemented with 5% fetal bovine serum 2 mM glutamine, 100 units/ml penicillin, 100 units/ml streptomycin, and 0.25 μg/ml amphotericin. Cells were harvested at 70 to 90% confluence with trypsin/EDTA and used immediately Cell count and viability was determined by Trypan blue staining followed by hemocytometry. Only cultures displaying >95% cell viability were used for experiments. HMEC were grown according to the specifications from the supplier (Lonzo).
(§2) Tissue culture microtiter 96-well plates were seeded with cells at a density of 5,000 cells/well. The plates were incubated for 18-24 hours prior to any treatment. All test compounds were solubilized in 100% DMSO and diluted with media to obtain a final DMSO concentration of 0.1%. Cell viability was measured 72 hours after treatment by the Cell Titer Glo Assay (Promega), which is a luminescent assay that is an indicator of live cells as a function of metabolic activity and ATP content. The assay was performed according to manufacturer's specifications. Luminescence was measured by a Perkin Elmer Victor® multi-label plate reader.^6
(§3) Dose response curves were analyzed using Prism™ 4 software (GraphPad) to calculate IC50 values using a four parameter logistic equation.

SKOV-3 = conditions: Homo sapiens; SKOV-3 / SK-OV-3, ovarian
Procedure: as §1, §2, §3

UACC-257 = conditions: Homo sapiens; UACC-257, melanoma
Procedure: as §1, §2, §3

CCFR-CEM = conditions: Homo sapiens, hematopoietic
Procedure: as §1, §2, §3

EKVX = conditions: Homo sapiens, lung
Procedure: as §1, §2, §3

SR = conditions: Homo sapiens, hematopoietic
Procedure: as §1, §2, §3

KM12 = conditions: Homo sapiens; KM12, colon
Procedure: as §1, §2, §3

NCI-H460 = conditions: Homo sapiens; NCI-H460, lung
Procedure: as §1, §2, §3

T-47D = conditions: Homo sapiens, T47D, breast
Procedure: as §1, §2, §3

ACHN = conditions: Homo sapiens, renal
Procedure: as §1, §2, §3

HL-60(TB) = conditions: Homo sapiens, hematopoietic
Procedure: as §1, §2, §3

OVCAR-8 = conditions: Homo sapiens; OVCAR-8, ovarian
Procedure: as §1, §2, §3

MCF-7 = conditions: Homo sapiens, MCF7; MCF-7, breast
Procedure: as §1, §2, §3

UACC-62 = conditions: Homo sapiens; UACC-62, melanoma
Procedure: as §1, §2, §3

HCT-116 = conditions: Homo sapiens; HCT-116, colon
Procedure: as §1, §2, §3

HCT-15 = conditions: Homo sapiens; HCT-15, colon
Procedure: as §1, §2, §3

SNB-19 = conditions: Homo sapiens; SNB-19, CNS
Procedure: as §1, §2, §3

PC-3 = conditions: Homo sapiens; PC-3, prostate
Procedure: as §1, §2, §3

SF-539 = conditions: Homo sapiens; SF-539, CNS
Procedure: as §1, §2, §3

MALME-3M = conditions: Homo sapiens, melanoma
Procedure: as §1, §2, §3

786-0 = conditions: Homo sapiens; 786-0, renal
Procedure: as §1, §2, §3

NCI-H322M = conditions: Homo sapiens, lung
Procedure: as §1, §2, §3

RPMI-8226 = conditions: Homo sapiens; RPMI-8226, hematopoietic
Procedure: as §1, §2, §3

OVCAR-4 = conditions: Homo sapiens; OVCAR-4, ovarian
Procedure: as §1, §2, §3

HOP-62 = conditions: Homo sapiens; HOP-62, lung
Procedure: as §1, §2, §3

M14 = conditions: Homo sapiens; M14, melanoma
Procedure: as §1, §2, §3

LOX IMVI = conditions: Homo sapiens; LOX IMVI / LOX IMV1, melanoma
Procedure: as §1, §2, §3

UO-31 = conditions: Homo sapiens; UO-31, renal
Procedure: as §1, §2, §3

[1] = system: human MDA-MB-231 breast tumor cells; conditions: Homo sapiens
Procedure: as §1, §2, §3

SK-MEL-28 = conditions: Homo sapiens
Procedure: as §1, §2, §3

RXF-393 = conditions: Homo sapiens; RXF-393, renal
Procedure: as §1, §2, §3

MOLT-4 = conditions: Homo sapiens; MOLT-4, hematopoietic
Procedure: as §1, §2, §3

OVCAR-5 = conditions: Homo sapiens; OVCAR-5, ovarian
Procedure: as §1, §2, §3

TK-10 = conditions: Homo sapiens; TK-10, renal
Procedure: as §1, §2, §3

SNB-75 = conditions: Homo sapiens; SNB-75, CNS
Procedure: as §1, §2, §3

NCI-H23 = conditions: Homo sapiens; NCI-H23, lung
Procedure: as §1, §2, §3

DU-145 = conditions: Homo sapiens; DU-145, prostate
Procedure: as §1, §2, §3

IGROVI = conditions: Homo sapiens; IGROVI / IGROV-1, ovarian
Procedure: as §1, §2, §3

COC(=O)[C@H]1Cc2c([nH]c3ccccc23)[C@H](c2ccc(Cl)cc2Cl)N1C(=O)CCl [Compound 2j, (1S,3R) Methyl 1-(2,4-dichlorophenyl)-2-(2-chloroacetyl)-2,3,4,9-tetrahydro-1H-β-carboline-3-carboxylate]
IC50 (SF-268): 100 nM
IC50 (SKOV-3): 320 nM
IC50 (UACC-257): > 3000 nM
IC50 (CCFR-CEM): 10 nM
IC50 (EKVX): 20 nM
IC50 (SR): 8 nM
IC50 (KM12): 630 nM
IC50 (NCI-H460): < 1 nM
IC50 (T-47D): 120 nM
IC50 (ACHN): 10 nM
IC50 (HL-60(TB)): 40 nM
IC50 (OVCAR-8): 50 nM
IC50 (MCF-7): > 3000 nM
IC50 (UACC-62): 290 nM
IC50 (HCT-116): > 3000 nM
IC50 (HCT-15): > 3000 nM
IC50 (SNB-19): 1040 nM
IC50 (PC-3): 340 nM
IC50 (SF-539): 160 nM
IC50 (MALME-3M): > 3000 nM
IC50 (786-0): 20 nM
IC50 (NCI-H322M): > 3000 nM
IC50 (RPMI-8226): 80 nM
IC50 (OVCAR-4): 50 nM
IC50 (HOP-62): 200 nM
IC50 (M14): 2260 nM
IC50 (LOX IMVI): < 1 nM
IC50 (UO-31): 5 nM
inhibition at 10 µM ([1]; MDA-MB-231, MDA-MB-231, 10 μM, mean +/− spread): 98%
IC50 ([1]; MDA-MB-231, MDA-MB-231, Tables 1 and 2, read-out: Growth Inhibition IC50, μM (95% CI)): 0.07 µM
IC50 (SK-MEL-28): 1040 nM
IC50 (RXF-393): 15 nM
IC50 (MOLT-4): 130 nM
IC50 (OVCAR-5): 490 nM
IC50 (TK-10): 200 nM
IC50 (SNB-75): 100 nM
IC50 (NCI-H23): > 3000 nM
IC50 (DU-145): > 3000 nM
IC50 (IGROVI): 20 nM

COC(=O)[C@H]1Cc2c([nH]c3ccccc23)[C@H](c2cc(OC)ccc2OC)N1C(=O)CCl [Compound 2f, Methyl (1S,3R)-1-(2,5-dimethoxyphenyl)-2-(2-chloroacetyl)-2,3,4,9-tetrahydro-1H-β-carboline-3-carboxylate]
IC50 (SF-268): 690 nM
IC50 (SKOV-3): 60 nM
IC50 (UACC-257): 5320 nM
IC50 (CCFR-CEM): < 6 nM
IC50 (EKVX): 14 nM
IC50 (SR): < 7 nM
IC50 (KM12): 1370 nM
IC50 (NCI-H460): > 10000 nM
IC50 (T-47D): 973 nM
IC50 (ACHN): 1.3 nM
IC50 (HL-60(TB)): 17 nM
IC50 (OVCAR-8): 68 nM
IC50 (MCF-7): 3750 nM
IC50 (UACC-62): 119 nM
IC50 (HCT-116): > 10000 nM
IC50 (HCT-15): > 10000 nM
IC50 (SNB-19): 131 nM
IC50 (PC-3): 192 nM
IC50 (SF-539): 34 nM
IC50 (MALME-3M): 132 nM
IC50 (786-0): 32 nM
IC50 (NCI-H322M): 2460 nM
IC50 (RPMI-8226): 17 nM
IC50 (OVCAR-4): 15 nM
IC50 (HOP-62): 20 nM
IC50 (M14): 485 nM
IC50 (LOX IMVI): 4 nM
IC50 (UO-31): < 9 nM
IC50 ([1]; MDA-MB-231, 72 h, MDA-MB-231 breast, 72 h, Tables 3-5, read-out: IC50 value, μM, growth): 0.006 µM
IC50 (SK-MEL-28): 485 nM
IC50 (RXF-393): 3 nM
IC50 (MOLT-4): 161 nM
IC50 (OVCAR-5): 1000 nM
IC50 (TK-10): 78 nM
IC50 (SNB-75): 63 nM
IC50 (NCI-H23): 13 nM
IC50 (DU-145): 232 nM
IC50 (IGROVI): 10 nM
